In PubChem BioAssay AID248 (DTP/NCI, 2004):
“And” between values parts separate entries of the source, which are not always exact repeats. Equal values may be shown once. Toxic doses and inconclusive results are not listed.

System: L1210 leukemia ip in BDF1 mice, survival T/C
Assay: NCI In Vivo Anticancer Drug Screen. Data for tumor model L1210 Leukemia (intraperitoneal) in B6D2F1 (BDF1) mice
Conditions: endpoint: mean survival time, higher = longer survival
In short: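 Survival endpoint. Drug-treated group vs vehicle group, expressed as T divided by C. Tumor passaged by transplantation.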

[1] = dose: 100.0 mg/kg/injection, schedule: Q01DX009 (ip), vehicle: saline with Tween-80
[2] = dose: 100.0 mg/kg/injection, schedule: Q04DX003 (ip), vehicle: saline with Tween-80
[3] = dose: 200.0 mg/kg/injection, schedule: Q01DX009 (ip), vehicle: saline with Tween-80
[4] = dose: 200.0 mg/kg/injection, schedule: Q04DX003 (ip), vehicle: saline with Tween-80
[5] = dose: 400.0 mg/kg/injection, schedule: Q01DX009 (ip), vehicle: saline with Tween-80
[6] = dose: 400.0 mg/kg/injection, schedule: Q04DX003 (ip), vehicle: saline with Tween-80
[7] = dose: 100.0 mg/kg/injection, schedule: Q04DX003 (ip), vehicle: Klucel (hydroxypropylcellulose) (HPC)
[8] = dose: 200.0 mg/kg/injection, schedule: Q04DX003 (ip), vehicle: Klucel (hydroxypropylcellulose) (HPC)
[9] = dose: 400.0 mg/kg/injection, schedule: Q04DX003 (ip), vehicle: Klucel (hydroxypropylcellulose) (HPC)
[10] = dose: 400.0 mg/kg/injection, schedule: Q04DX002 (ip), vehicle: saline with Tween-80
[11] = dose: 100.0 mg/kg/injection, schedule: Q04DX003 (ip), vehicle: saline
[12] = dose: 200.0 mg/kg/injection, schedule: Q04DX003 (ip), vehicle: saline
[13] = dose: 400.0 mg/kg/injection, schedule: Q04DX003 (ip), vehicle: saline
[14] = dose: 100.0 mg/kg/injection, schedule: Q01DX001 (ip), vehicle: saline
[15] = dose: 200.0 mg/kg/injection, schedule: Q01DX001 (ip), vehicle: saline
[16] = dose: 400.0 mg/kg/injection, schedule: Q01DX001 (ip), vehicle: saline

For `COc1cc(OC)cc(C(=O)NCCCl)c1`, the T/C (dose: 50.0 mg/kg/injection, schedule: Q01DX001 (ip), vehicle: carboxymethylcellulose (CMC)) was 101 % of control, the T/C (dose: 100.0 mg/kg/injection, schedule: Q01DX001 (ip), vehicle: carboxymethylcellulose (CMC)) was 110 % of control and the T/C (dose: 200.0 mg/kg/injection, schedule: Q01DX001 (ip), vehicle: carboxymethylcellulose (CMC)) was 107 % of control. The T/C (dose: 400.0 mg/kg/injection, schedule: Q01DX001 (ip), vehicle: carboxymethylcellulose (CMC)) was 107 % of control.

In the case of `N#Cc1c(N)sc2c1CCCC2`, the T/C [1] is reported as 98 % of control, the T/C [2] is reported as 102 % of control and the T/C [3] is reported as 95 % of control. For the same compound, the T/C [4] was 98 % of control, the T/C [5] was 101 % of control and the T/C [6] was 101 % of control.

`Cc1c(Cl)c(Cl)cc([N+](=O)[O-])c1Cl` was tested, and the T/C (dose: 66.0 mg/kg/injection, schedule: Q01DX009 (sc), vehicle: olive oil, sesame oil, peanut oil) was 100 % of control, the T/C (dose: 100.0 mg/kg/injection, schedule: Q01DX009 (sc), vehicle: olive oil, sesame oil, peanut oil) was 98 % of control and the T/C (dose: 100.0 mg/kg/injection, schedule: Q04DX003 (sc), vehicle: olive oil, sesame oil, peanut oil) was 105 % of control. For the same compound, the T/C (dose: 150.0 mg/kg/injection, schedule: Q01DX009 (sc), vehicle: olive oil, sesame oil, peanut oil) was 102 % of control, the T/C (dose: 200.0 mg/kg/injection, schedule: Q01DX009 (sc), vehicle: olive oil, sesame oil, peanut oil) was 94 % of control and the T/C (dose: 200.0 mg/kg/injection, schedule: Q04DX003 (sc), vehicle: olive oil, sesame oil, peanut oil) was 106 % of control. The T/C (dose: 400.0 mg/kg/injection, schedule: Q01DX009 (sc), vehicle: olive oil, sesame oil, peanut oil) was 105 % of control and the T/C (dose: 400.0 mg/kg/injection, schedule: Q04DX003 (sc), vehicle: olive oil, sesame oil, peanut oil) was 97 % of control.

In the case of `CN(C)c1ccc(/C=[N+](\[O-])c2cccc(Cl)c2)cc1`, the T/C (dose: 100.0 mg/kg/injection, schedule: Q01DX001 (ip), vehicle: Klucel (hydroxypropylcellulose) (HPC)) is reported as 95 % of control, the T/C [7] is reported as 102 % of control and the T/C (dose: 200.0 mg/kg/injection, schedule: Q01DX001 (ip), vehicle: Klucel (hydroxypropylcellulose) (HPC)) is reported as 97 % of control. The T/C [8] was 100 % of control and the T/C [9] was 107 % of control.

With `CCCCCCCS(=O)(=O)CCCCCCC` the T/C (dose: 25.6 mg/kg/injection, schedule: Q04DX002 (ip), vehicle: saline with Tween-80) was 95 % of control, the T/C (dose: 64.0 mg/kg/injection, schedule: Q04DX002 (ip), vehicle: saline with Tween-80) was 91 % of control and the T/C [1] was 94 % of control. The T/C [2] was 93 % of control, the T/C (dose: 160.0 mg/kg/injection, schedule: Q04DX002 (ip), vehicle: saline with Tween-80) was 91 % of control and the T/C [3] was 94 % of control. For the same compound, the T/C [4] was 95 % of control, the T/C [5] was 98 % of control and the T/C [10] was 95 % of control. The T/C [6] was 90 % of control.

With `CC1(CO)CCCC2(C)c3cc(O)ccc3CCC12` (centres undefined) the T/C (dose: 100.0 mg/kg/injection, schedule: Q01DX009 (ip), vehicle: acetone) was 90 % of control, the T/C [11] was 97 % of control and the T/C [12] was 97 % of control. The T/C [13] was 97 % of control.

With `NC1C(O)CCCC1O` (centres undefined) the T/C [14] was 107 % of control, the T/C [15] was 102 % of control and the T/C [16] was 102 % of control.

With `O=S(=O)(C(Br)Br)C(Br)c1ccccc1` (centres undefined) the T/C [14] was 93 % of control, the T/C [15] was 101 % of control and the T/C [16] was 87 % of control.

In the case of `COC(=O)C(C)NC(=O)Cc1ccccc1` (centres undefined), the T/C [1] is reported as 94 % of control, the T/C [2] is reported as 98 % of control and the T/C [3] is reported as 92 % of control. For the same compound, the T/C [4] was 101 % of control, the T/C [5] was 92 % of control and the T/C [6] was 97 % of control.

`Nc1ccc(N(CCCl)CCN(CCCl)c2ccc(N)cc2)cc1` was tested, and the T/C (dose: 0.25 mg/kg/injection, schedule: Q01DX009 (ip), vehicle: saline) was 102 % of control, the T/C (dose: 0.5 mg/kg/injection, schedule: Q01DX009 (ip), vehicle: saline) was 109 % of control and the T/C (dose: 1.0 mg/kg/injection, schedule: Q01DX009 (ip), vehicle: saline) was 118 % of control. For the same compound, the T/C (dose: 1.2 mg/kg/injection, schedule: Q01DX009 (ip), vehicle: carboxymethylcellulose (CMC)) was 109 % of control, the T/C (dose: 2.5 mg/kg/injection, schedule: Q01DX001 (ip), vehicle: carboxymethylcellulose (CMC)) was 106 % of control and the T/C (dose: 2.5 mg/kg/injection, schedule: Q01DX009 (ip), vehicle: carboxymethylcellulose (CMC)) was 111 % of control. For the same compound, the T/C (dose: 2.9 mg/kg/injection, schedule: Q01DX001 (ip), vehicle: carboxymethylcellulose (CMC)) was 114 % of control, the T/C (dose: 2.9 mg/kg/injection, schedule: Q01DX009 (ip), vehicle: carboxymethylcellulose (CMC)) was 119 % of control and the T/C (dose: 2.9 mg/kg/injection, schedule: Q01DX009 (ip), vehicle: saline) was 169 % of control. The T/C (dose: 4.0 mg/kg/injection, schedule: Q01DX001 (ip), vehicle: saline) was 106 % of control, the T/C (dose: 4.4 mg/kg/injection, schedule: Q01DX001 (ip), vehicle: carboxymethylcellulose (CMC)) was 119 % of control and the T/C (dose: 4.4 mg/kg/injection, schedule: Q01DX009 (ip), vehicle: saline) was 159 % of control. The T/C (dose: 5.0 mg/kg/injection, schedule: Q01DX001 (ip), vehicle: carboxymethylcellulose (CMC)) was 115 % of control, the T/C (dose: 6.0 mg/kg/injection, schedule: Q01DX001 (ip), vehicle: saline) was 122 % of control and the T/C (dose: 10.0 mg/kg/injection, schedule: Q01DX001 (ip), vehicle: saline) was 111 % of control. The T/C (dose: 10.0 mg/kg/injection, schedule: Q01DX009 (ip), vehicle: carboxymethylcellulose (CMC)) was 106 % of control, the T/C (dose: 10.0 mg/kg/injection, schedule: Q01DX009 (ip), vehicle: saline) was 105 % of control and the T/C (dose: 15.0 mg/kg/injection, schedule: Q01DX001 (ip), vehicle: saline) was 117 % of control.

In the case of `O=c1[nH]/c(=C\c2ccc3c(c2)OCO3)c(=O)[nH]/c1=C\c1ccc2c(c1)OCO2`, the T/C (dose: 100.0 mg/kg/injection, schedule: Q01DX009 (ip), vehicle: Klucel (hydroxypropylcellulose) (HPC)) is reported as 94 % of control, the T/C [7] is reported as 93 % of control and the T/C (dose: 200.0 mg/kg/injection, schedule: Q01DX009 (ip), vehicle: Klucel (hydroxypropylcellulose) (HPC)) is reported as 86 % of control. The T/C [8] was 96 % of control, the T/C (dose: 400.0 mg/kg/injection, schedule: Q01DX009 (ip), vehicle: Klucel (hydroxypropylcellulose) (HPC)) was 89 % of control and the T/C [9] was 98 % of control.

For `COc1ccc(Cl)cc1NC(=O)Nc1cc(C)ccc1N=Nc1ccc(C)cc1`, the T/C (dose: 100.0 mg/kg/injection, schedule: Q01DX001 (ip), vehicle: saline with Tween-80) was 96 % of control and 91 % of control, the T/C [1] was 88 % of control and the T/C (dose: 100.0 mg/kg/injection, schedule: Q04DX002 (ip), vehicle: saline with Tween-80) was 87 % of control. For the same compound, the T/C (dose: 200.0 mg/kg/injection, schedule: Q01DX001 (ip), vehicle: saline with Tween-80) was 96 % of control, the T/C [3] was 94 % of control and 91 % of control and the T/C (dose: 200.0 mg/kg/injection, schedule: Q04DX002 (ip), vehicle: saline with Tween-80) was 92 % of control. The T/C (dose: 400.0 mg/kg/injection, schedule: Q01DX001 (ip), vehicle: saline with Tween-80) was 96 % of control and 88 % of control, the T/C [5] was 94 % of control and the T/C [10] was 92 % of control.

`O=c1c2cc([N+](=O)[O-])ccc2[nH]c2c1ccc1ccccc12` was tested, and the T/C [11] was 92 % of control, the T/C [12] was 92 % of control and the T/C [13] was 90 % of control.

With `Cc1nc(N)[nH]c(=O)c1CCCN=Cc1ccc([N+](=O)[O-])cc1` the T/C (dose: 18.75 mg/kg/injection, schedule: Q01DX001 (ip), vehicle: Klucel (hydroxypropylcellulose) (HPC)) was 95 % of control, the T/C (dose: 37.5 mg/kg/injection, schedule: Q01DX001 (ip), vehicle: Klucel (hydroxypropylcellulose) (HPC)) was 101 % of control and the T/C (dose: 75.0 mg/kg/injection, schedule: Q01DX001 (ip), vehicle: Klucel (hydroxypropylcellulose) (HPC)) was 101 % of control.

With `O=C1C=CC(=O)c2cc(Cl)c(Cl)cc21` the T/C (dose: 3.12 mg/kg/injection, schedule: Q01DX009 (ip), vehicle: saline) was 89 % of control, the T/C (dose: 6.25 mg/kg/injection, schedule: Q01DX009 (ip), vehicle: saline) was 90 % of control and the T/C (dose: 6.25 mg/kg/injection, schedule: Q04DX003 (ip), vehicle: saline) was 96 % of control. The T/C (dose: 12.5 mg/kg/injection, schedule: Q01DX001 (ip), vehicle: saline) was 98 % of control, the T/C (dose: 12.5 mg/kg/injection, schedule: Q04DX003 (ip), vehicle: saline) was 98 % of control and the T/C (dose: 25.0 mg/kg/injection, schedule: Q01DX001 (ip), vehicle: saline) was 90 % of control.
